Two molecules from patent US9045472B2, “Imidazoquinoline compounds” (ASTRAZENECA AB, priority 2010, dated 2015) can be followed below.

Series [1] is described as follows: Cynomolgous monkey plasma stability. Format: in vitro ADME. To be noted: 37° C., 1 μM final incubation concentration, parent compound by LC-MS-MS. On the procedure:
Cynomolgous Monkey Plasma Stability
To determine the half life of the test compound in cynomolgous monkey plasma, incubations were performed at 37° C. in a shaking water bath. The test compound (5 μL of a 100 μM stock in MeCN) was spiked into 0.495 mL plasma to give a final incubation concentration of 1 μM. Aliquots (50 μL) were withdrawn at various time points (typically 0, 20 and 40 sec, 1, 2, 3, 5 and 10 mins) and quenched into MeCN (300 μL) followed by analysis for parent compound by LC-MS-MS (MRM mode). The half life was calculated from the decline of test compound peak area over time

A short description of another series: Human plasma stability. Format: in vitro ADME. To be noted: 37° C., 1 μM final incubation concentration, parent compound by LC-MS-MS. How it is done:
To determine the half life of the test compound in human plasma, incubations were performed at 37° C. in a shaking water bath. Compound (5 μL of a 100 μM stock in MeCN) was spiked into 0.495 mL plasma to give a final incubation concentration of 1 μM. Aliquots (50 μL) were withdrawn at various time points (typically 0, 20 and 40 sec, 1, 2, 3, 5 and 10 mins) and quenched into MeCN (300 μL) followed by analysis for parent compound by LC-MS-MS (MRM mode). The half life was calculated from the decline of test compound peak area over time.

The target in a further series is T1, human TLR7 (Homo sapiens, UniProt Q9NYK1).
T1 construct: expressed in transfected cells; host or cells: HEK293 cell line stably expressing the pNiFty2-SEAP reporter plasmid; TLR7 in pUNO vector, blasticidin selection
T1 sequence (Q9NYK1 27-1049): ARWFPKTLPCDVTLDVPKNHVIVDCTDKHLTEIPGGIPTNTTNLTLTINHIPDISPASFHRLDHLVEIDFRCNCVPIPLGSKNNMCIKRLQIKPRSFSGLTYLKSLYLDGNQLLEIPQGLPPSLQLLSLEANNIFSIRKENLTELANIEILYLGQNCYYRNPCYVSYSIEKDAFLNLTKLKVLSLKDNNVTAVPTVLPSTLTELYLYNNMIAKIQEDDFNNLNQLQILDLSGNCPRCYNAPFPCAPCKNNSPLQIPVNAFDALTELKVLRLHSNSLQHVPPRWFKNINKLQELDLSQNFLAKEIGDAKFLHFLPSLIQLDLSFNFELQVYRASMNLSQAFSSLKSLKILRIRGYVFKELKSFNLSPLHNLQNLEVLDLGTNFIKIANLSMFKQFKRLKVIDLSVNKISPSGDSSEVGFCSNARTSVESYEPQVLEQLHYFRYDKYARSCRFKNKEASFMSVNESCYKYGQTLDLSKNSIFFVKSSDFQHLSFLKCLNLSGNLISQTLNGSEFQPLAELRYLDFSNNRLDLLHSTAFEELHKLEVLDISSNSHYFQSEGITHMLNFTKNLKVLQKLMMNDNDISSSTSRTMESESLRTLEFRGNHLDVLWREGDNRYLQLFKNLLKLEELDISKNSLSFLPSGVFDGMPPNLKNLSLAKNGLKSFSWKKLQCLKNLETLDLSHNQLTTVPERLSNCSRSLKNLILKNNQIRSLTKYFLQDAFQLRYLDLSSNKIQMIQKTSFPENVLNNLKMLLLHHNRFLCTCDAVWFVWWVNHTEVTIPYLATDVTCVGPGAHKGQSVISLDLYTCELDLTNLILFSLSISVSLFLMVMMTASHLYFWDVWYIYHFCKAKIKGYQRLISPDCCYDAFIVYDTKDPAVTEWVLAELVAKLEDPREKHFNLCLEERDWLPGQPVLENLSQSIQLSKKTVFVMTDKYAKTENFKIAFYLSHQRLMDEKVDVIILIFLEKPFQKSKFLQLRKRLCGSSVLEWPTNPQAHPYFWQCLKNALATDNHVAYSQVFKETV
The series is described as follows: Human TLR7 assay (SEAP reporter in HEK293 cells). The settings on record: HEK293 cell line expressing recombinant human TLR7 and pNiFty2-SEAP reporter; overnight incubation at 37° C., 0.1% DMSO; read-out: mean pEC50 (concentration producing half of the maximal level of SEAP induction) (converted). Format: cell-based. The source says:
Recombinant human TLR7 was stably expressed in a HEK293 cell line already stably expressing the pNiFty2-SEAP reporter plasmid; integration of the reporter gene was maintained by selection with the antibiotic zeocin. The most common variant sequence of human TLR7 (represented by the EMBL sequence AF240467) was cloned into the mammalian cell expression vector pUNO and transfected into this reporter cell-line. Transfectants with stable expression were selected using the antibiotic blasticidin. In this reporter cell-line, expression of secreted alkaline phosphatase (SEAP) was controlled by an NFkB/ELAM-1 composite promoter comprising five NFkB sites combined with the proximal ELAM-1 promoter. TLR signaling leads to the translocation of NFkB and activation of the promoter results in expression of the SEAP gene. TLR7-specific activation was assessed by determining the level of SEAP produced following overnight incubation of the cells at 37° C. with the test compound prepared above in the presence of 0.1% (v/v) dimethylsulfoxide (DMSO). Concentration dependent induction of SEAP production by compounds was expressed as the concentration of compound which produced half of the maximal level of SEAP induction for that compound (pEC50).

Series [2] is described as follows: Gravimetric Vapour Sorption (GVS). The series is classed as physicochemical. On the procedure: Gravimetric Vapour Sorption (GVS) profiles were measured using a TA Instruments Q5000SA instrument. Approximately 1 mg to 5 mg of the solid sample was placed into a metal vessel, and the weight of the sample was recorded during a dual cycle step method (40 to 90 to 0 to 90 to 0% relative humidity (RH), in steps of 10% RH).

A word on the half-life: it is the time needed for the level to fall by half in the phase considered. Consider `CCOCc1nc2c(N)nc3ccccc3c2n1CCCN(Cc1cccc(CC(=O)OC)c1)C(=O)CN(C)C` [Comparative Example 1, Methyl 2-(3-((N-(3-(4-amino-2-(ethoxymethyl)-1H-imidazo[4,5-c]quinolin-yl)propyl)-2-(dimethylamino)acetamido)methyl)phenyl)acetate, reference compound], for which the figures for the half-life at 1 μM (in series [1]; in “Human plasma stability”) were 660 s and 42 s, respectively.
On to `CCOCc1nc2c(N)nc3ccccc3c2n1CCCCN(Cc1cccc(CC(=O)OC)c1)C(=O)CN(CC)CC` [Compound (I), Methyl (3-{[{4-[4-amino-2-(ethoxymethyl)-1H-imidazo[4,5-c]quinolin-1-yl]butyl}(N,N-diethylglycyl)amino]methyl}phenyl)acetate], for which the EC50 on human TLR7 was 39.8 nM. Besides, the half-life at 1 μM in series [1] turned out to be 72 s; in “Human plasma stability”, 18 s. In series [2] (cycle 1), the “mass increase at 80% relative humidity, cycle 1” value was 0.5%. For the same molecule, in series [2] (cycle 2), the “mass increase at 80% relative humidity, cycle 2” value is reported as 0.64%.
